Molecules are shown by their SMILES. ≈ marks a conversion by molar mass, not a printed value. Where two headings read alike, the source gives them in different places.

Consider 15 compounds from patent publication US9381200B2, “Nitrogen containing compounds” (WOCKHARDT LIMITED, priority 2011, dated 2016).

Common to all, as to test: Antibacterial activity (MIC), agar dilution per CLSI
What all share (assay type): cell-based
A general note: In agar dilution, organisms are placed on agar that contains the substance at set levels.

In assay [1] the test system is E. coli 7 MP. Particulars: Table 3, E. coli 7 MP expressing ESBL. As for the experimental part: (§1) The biological activity of representative compounds according to the invention against various bacterial strains was investigated. In a typical study, overnight grown bacterial cultures were diluted appropriately and inoculated on the agar media containing doubling dilutions of the test compounds. Observation for growth or no growth was performed after 16-20 hours of incubation at 35±2° C. in ambient air. The overall procedure was performed as per Clinical and Laboratory Standards Institute (CLSI) recommendations (Clinical and Laboratory Standards Institute (CLSI), Performance Standards for Antimicrobial Susceptibility Testing, 20th Informational Supplement, M 100-S20, Volume 30, No. 1, 2010).
(§2) Table 3 details antibacterial activity of representative compounds according to the invention against various E. coli strains (NCTC 13351, M 50 and 7 MP) expressing ESBL (Extended Spectrum Beta Lactamases).

In assay [2] the test system is E. coli NCTC 13351. Particulars: 16-20 hours, 35±2° C. The procedure: as §1, §2
For assay [3], the system named is E. coli M 50. The conditions noted are these: E. coli M 50 expressing ESBL, agar dilution. As for the experimental part:
as §1
The activities are expressed as MICs (mcg/ml).

Where [4] appears, read: Escherichia coli, read-out: MIC.
The mark [5] stands for this setting: Escherichia coli, NCTC13351, Table 3, E. coli NCTC 13351 expressing ESBL, read-out: MIC.
[6] abbreviates: Escherichia coli, M50, Table 3, read-out: MIC.
[7] abbreviates: Table 3, E. coli NCTC 13351 expressing ESBL.

Regarding `NCCCC[C@H](N)C(=O)NNC(=O)[C@H]1CC[C@@H]2CN1C(=O)N2OS(=O)(=O)O` (mixture of isomers) [Example 26, trans-sulfuric acid mono-[2-(N′-((2S)-2,6-diamino-hexanoyl)-hydrazinocarbonyl)-7-oxo-1,6-diaza-bicyclo[3.2.1]oct-6-yl]ester], the MIC – broadly, the least concentration at which growth counts as inhibited – in assay [1] (setting [4]) worked out at 2 µg/mL; in assay [2] (setting [5]), 1 µg/mL; in assay [3] (setting [6]) it was 1 µg/mL.
Consider `NC(=O)c1cccc(C(=O)NNC(=O)C2CCC3CN2C(=O)N3OS(=O)(=O)[O-])n1.[Na+]` (stereo not drawn) [Example 46, Sodium salt of trans-sulfuric acid mono-[2-(N′-(6-carboxamido-pyridin-2-carbonyl)-hydrazinocarbonyl)-7-oxo-1,6-diaza-bicyclo[3.2.1]oct-6-yl]ester], for which the MIC amounted to 128 µg/mL in assay [1], 32 µg/mL in assay [2] (setting [7]) and 64 µg/mL in assay [3] (Table 3).
Regarding `Nc1nc(C(=O)NNC(=O)[C@H]2CC[C@@H]3CN2C(=O)N3OS(=O)(=O)O)cs1` (relative stereo) [Example 42, trans-sulfuric acid mono-[2-(N′-(2-amino-thiazol-4-carbonyl)-hydrazinocarbonyl)-7-oxo-1,6-diaza-bicyclo[3.2.1]oct-6-yl]ester], the results for the minimal inhibitory concentration (MIC) in assay [1] (setting [4]), in assay [2] (setting [5]) and in assay [3] (setting [6]) were 64 µg/mL (≈ 157 µM), 32 µg/mL (≈ 78.7 µM) and 32 µg/mL (≈ 78.7 µM), respectively.
Consider `O=C(NNC(=O)[C@H]1CC[C@@H]2CN1C(=O)N2OS(=O)(=O)O)[C@H]1CCNC1` (mixture of isomers) [Example 33, trans-sulfuric acid mono-[2-(N′—[(S)-pyrrolidin-3-carbonyl]-hydrazinocarbonyl)-7-oxo-1,6-diaza-bicyclo[3.2.1]oct-6-yl]ester], for which the minimum inhibitory concentration (MIC) in assay [1] (setting [4]) is 2 µg/mL; in assay [2] (setting [5]), 1 µg/mL; in assay [3] (setting [6]), 0.5 µg/mL.
`O=C1CC[C@@H](C(=O)NNC(=O)[C@H]2CC[C@@H]3CN2C(=O)N3OS(=O)(=O)[O-])N1.[Na+]` (relative stereo) [Example 52, Sodium salt of trans-sulfuric acid mono-[2-(N′—[(S)-5-oxo-pyrrolidin-2-carbonyl]-hydrazinocarbonyl)-7-oxo-1,6-diaza-bicyclo[3.2.1]oct-6-yl]ester]: the figures for the MIC in assay [1], in assay [2] (setting [7]) and in assay [3] (Table 3) were 2 µg/mL, 0.5 µg/mL and 0.5 µg/mL, respectively.
For `NC(=O)N1CCC[C@H]1C(=O)NNC(=O)[C@H]1CC[C@@H]2CN1C(=O)N2OS(=O)(=O)[O-].[Na+]` (relative stereo) [Example 48, Sodium salt of trans-sulfuric acid mono-[2-(N′—[(S)-1-carbamoyl-pyrrolidin-2-carbonyl]-hydrazinocarbonyl)-7-oxo-1,6-diaza-bicyclo [3.2.1]oct-6-yl]ester], the minimal inhibitory concentration (MIC) in assay [1] turned out to be 32 µg/mL; in assay [2] (setting [7]), 16 µg/mL; in assay [3] (Table 3) it was 8 µg/mL.
The matching figures for `O=C(CN1CCOCC1)NNC(=O)C1CCC2CN1C(=O)N2OS(=O)(=O)[O-].[Na+]` (stereo not drawn) [Example 45, Sodium salt of trans-sulfuric acid mono-[2-(N′-(morpholin-4-yl-acetyl)-hydrazinocarbonyl)-7-oxo-1,6-diaza-bicyclo[3.2.1]oct-6-yl]ester]: 8 µg/mL, 4 µg/mL and 8 µg/mL.
Taken in the same sequence, the figures for `NC(=O)N1C[C@@H](F)C[C@H]1C(=O)NNC(=O)C1CCC2CN1C(=O)N2OS(=O)(=O)[O-].[Na+]` (relative stereo) [Example 49, Sodium salt of trans-sulfuric acid mono-[2-(N′—[(2S,4S)-1-carbamoyl-4-fluoro-pyrrolidin-2-carbonyl]-hydrazinocarbonyl)-7-oxo-1,6-diaza-bicyclo[3.2.1]oct-6-yl]ester] were 16 µg/mL, 32 µg/mL and 16 µg/mL.
The matching figures for `CC(C)(C#N)C(=O)NNC(=O)[C@H]1CC[C@@H]2CN1C(=O)N2OS(=O)(=O)[O-].[Na+]` (relative stereo) [Example 51, Sodium salt of trans-sulfuric acid mono-[2-(N′-(cyano-dimethyl-acetyl)-hydrazinocarbonyl)-7-oxo-1,6-diaza-bicyclo[3.2.1]oct-6-yl]ester]: 32 µg/mL, 16 µg/mL and 16 µg/mL.
As to `NCCOCC(=O)NNC(=O)[C@H]1CC[C@@H]2CN1C(=O)N2OS(=O)(=O)O` (relative stereo) [Example 27, trans-sulfuric acid mono-[2-(N′-((2-aminoethoxy)-acetyl)-hydrazinocarbonyl)-7-oxo-1,6-diaza-bicyclo[3.2.1]oct-6-yl]ester], the results for the MIC in assay [1] (setting [4]), in assay [2] (setting [5]) and in assay [3] (setting [6]) were 8 µg/mL (≈ 21 µM), 4 µg/mL (≈ 10.5 µM) and 2 µg/mL (≈ 5.24 µM), respectively.
The matching figures for `NCC1(C(=O)NNC(=O)[C@H]2CC[C@@H]3CN2C(=O)N3OS(=O)(=O)O)CC1` (relative stereo) [Example 23, trans-sulfuric acid mono-[2-(N′-(1-aminomethyl-cyclopropan-1-carbonyl)-hydrazinocarbonyl)-7-oxo-1,6-diaza-bicyclo[3.2.1]oct-6-yl]ester]: 8 µg/mL (≈ 21.2 µM), 4 µg/mL (≈ 10.6 µM) and 4 µg/mL (≈ 10.6 µM).
As to `N=C(N)N[C@@H]1CN[C@H](C(=O)NNC(=O)[C@H]2CC[C@@H]3CN2C(=O)N3OS(=O)(=O)O)C1` (mixture of isomers) [Example 36, trans-sulfuric acid mono-[2-(N′-[(2S,4S)-4-guanidino-pyrrolidin-2-carbonyl]-hydrazinocarbonyl)-7-oxo-1,6-diaza-bicyclo[3.2.1]oct-6-yl]ester], the minimal inhibitory concentration (MIC) worked out at 2 µg/mL in assay [1] (setting [4]), 1 µg/mL in assay [2] (setting [5]) and 1 µg/mL in assay [3] (setting [6]).
In the case of `O=C(CC[C@@H]1CCCN1)NNC(=O)[C@H]1CC[C@@H]2CN1C(=O)N2OS(=O)(=O)O` (relative stereo) [Example 31, trans-sulfuric acid mono-[2-(N′—[((S)-3-pyrrolidin-2-yl)-propionyl]-hydrazinocarbonyl)-7-oxo-1,6-diaza-bicyclo[3.2.1]oct-6-yl]ester], the results for the MIC in assay [1], in assay [2] (setting [7]) and in assay [3] (Table 3) were 4 µg/mL (≈ 9.87 µM), 1 µg/mL (≈ 2.47 µM) and 1 µg/mL (≈ 2.47 µM), respectively.
`CO[C@H]1CN[C@H](C(=O)NNC(=O)[C@H]2CC[C@@H]3CN2C(=O)N3OS(=O)(=O)O)C1` (mixture of isomers) [Example 12, trans-sulfuric acid mono-[2-(N′-[(2S,4R)-4-methoxy-pyrrolidin-2-carbonyl]-hydrazinocarbonyl)-7-oxo-1,6-diaza-bicyclo[3.2.1]oct-6-yl]ester]: the minimum inhibitory concentration (MIC) was 32 µg/mL in assay [1] (setting [4]), 1 µg/mL in assay [2] (setting [5]) and 8 µg/mL in assay [3] (setting [6]).
The matching figures for `O=C(NNC(=O)[C@H]1CC[C@@H]2CN1C(=O)N2OS(=O)(=O)O)C1CNC1` (relative stereo) [Example 28, trans-sulfuric acid mono-[2-(N′-[azetidin-3-carbonyl]-hydrazinocarbonyl)-7-oxo-1,6-diaza-bicyclo[3.2.1]oct-6-yl]ester]: 4 µg/mL (≈ 11 µM), 1 µg/mL (≈ 2.75 µM) and 1 µg/mL (≈ 2.75 µM).
